Values quoted from earlier work, collected in US5284873A (priority 1991, dated 1994).

Test system: prostate
Details: treatment of the α-receptors with antagonists

Row | SMILES | improvement in prostate patients
1 | CC(COc1ccccc1)N(CCCl)Cc1ccccc1 (centres unmarked) [phenoxybenzamine] | effective improvement
2 | COc1cc2nc(N3CCN(C(=O)c4ccco4)CC3)nc(N)c2cc1OC [prazosin] | effective improvement
